Entries after “also recorded” stand apart in the source; their conditions may differ.
Tests used:
syngeneic tumor = test: Re-challenge of cured tumor-bearing mice with the same syngeneic tumor; assay type: in vivo; conditions: tumor-bearing mice cured following treatment with Compound 1
[1] = system: female Sprague Dawley rats; conditions: female, Sprague Dawley, rat, in vivo
CYP3A4 = CYP3A4 (Homo sapiens, UniProt P08684); test: In vitro metabolism by CYP3A4; assay type: in vitro ADME
C57BL/6 mice = test: Ocular histopathology (retina) in mice at terminal (Day 38) and recovery (Day 66) necropsy; assay type: in vivo; conditions: for animals affected by swelling of rod and cone processes (incidence and grade): terminal necropsy
Experimental: Eyes were harvested for histopathology assessment from the tumor-naïve groups as the terminal necropsy cohort on Day 38, the last day the 28-day dosing period. Since not all terminal necropsy groups were dosed for the entirety of the 28-day dosing period, some groups effectively experienced a 1-3 week recovery period. Eyes were harvested for histopathology assessment from the tumor-bearing groups as the recovery necropsy cohort on Day 66, the last day of the 28-day recovery period. Since not all recovery necropsy groups were dosed for the entirety of the 28-day dosing period, some of these groups effectively experienced an extended recovery period beyond the 28-day recovery period of an additional 1-3 weeks. […] This finding was only visualized under epifluorescent illumination and was characterized by scattered individual processes that were increased in diameter up to five times the surrounding processes, with increased autofluorescence. […] It remained unclear whether these findings were adverse, as no degenerative changes were observed. If the material affected vision, it would be considered adverse; however, as this study was not designed to test for alterations in vision, adversity could not be determined.
Terminal necropsy from non-tumor-bearing cohorts occurred at 28 days from the start of dosing, and eyes from 4-5 animals in each group were harvested for histopathology assessment. Since not all terminal necropsy groups were dosed for the entirety of the 28-day dosing period, some groups effectively experienced a 1-3 week recovery period. Recovery sacrifice from tumor-bearing cohorts occurred at 28 days after the 28-day dosing period, and eyes from 5 animals in each group were harvested for histopathology assessment. Since not all recovery necropsy groups were dosed for the entirety of the 28-day dosing period, some groups effectively experienced an extended recovery period beyond the 28-day recovery period of 1-3 weeks. Briefly, animals were euthanized by CO2 inhalation and eyes were harvested with forceps and placed in 1.5 mL modified Davidson's Fixative (Electron Microscopy Science, Cat. No. 64133-50, lot no. 190621-08) for up to 24 hours at room temperature. Tissues were then transferred to 1.5 ml 10% neutral buffered formalin (Thermo Scientific, cat. no. 9400-5, lot no. 435456) at room temperature. Fixed tissues were submitted Vet Path Services, Inc. (Mason, Ohio) for histological processing and microscopic evaluation.
Provantis™ pathology software v 10.1.0.1 was utilized for data capture and table generation. Histopathology grades were assigned as grade 1 (minimal), grade 2 (mild), grade 3 (moderate), grade 4 (marked), or grade 5 (severe) based on an increasing extent of change, unless otherwise specified. H&E stained slides were evaluated with standard light microscopy and epifluorescence (450-490 nm excitation).

P-gp = P-gp (Homo sapiens, UniProt P08183); test: P-gp substrate assessment in vitro; assay type: in vitro ADME
P-gp, sequence (P08183 whole entry): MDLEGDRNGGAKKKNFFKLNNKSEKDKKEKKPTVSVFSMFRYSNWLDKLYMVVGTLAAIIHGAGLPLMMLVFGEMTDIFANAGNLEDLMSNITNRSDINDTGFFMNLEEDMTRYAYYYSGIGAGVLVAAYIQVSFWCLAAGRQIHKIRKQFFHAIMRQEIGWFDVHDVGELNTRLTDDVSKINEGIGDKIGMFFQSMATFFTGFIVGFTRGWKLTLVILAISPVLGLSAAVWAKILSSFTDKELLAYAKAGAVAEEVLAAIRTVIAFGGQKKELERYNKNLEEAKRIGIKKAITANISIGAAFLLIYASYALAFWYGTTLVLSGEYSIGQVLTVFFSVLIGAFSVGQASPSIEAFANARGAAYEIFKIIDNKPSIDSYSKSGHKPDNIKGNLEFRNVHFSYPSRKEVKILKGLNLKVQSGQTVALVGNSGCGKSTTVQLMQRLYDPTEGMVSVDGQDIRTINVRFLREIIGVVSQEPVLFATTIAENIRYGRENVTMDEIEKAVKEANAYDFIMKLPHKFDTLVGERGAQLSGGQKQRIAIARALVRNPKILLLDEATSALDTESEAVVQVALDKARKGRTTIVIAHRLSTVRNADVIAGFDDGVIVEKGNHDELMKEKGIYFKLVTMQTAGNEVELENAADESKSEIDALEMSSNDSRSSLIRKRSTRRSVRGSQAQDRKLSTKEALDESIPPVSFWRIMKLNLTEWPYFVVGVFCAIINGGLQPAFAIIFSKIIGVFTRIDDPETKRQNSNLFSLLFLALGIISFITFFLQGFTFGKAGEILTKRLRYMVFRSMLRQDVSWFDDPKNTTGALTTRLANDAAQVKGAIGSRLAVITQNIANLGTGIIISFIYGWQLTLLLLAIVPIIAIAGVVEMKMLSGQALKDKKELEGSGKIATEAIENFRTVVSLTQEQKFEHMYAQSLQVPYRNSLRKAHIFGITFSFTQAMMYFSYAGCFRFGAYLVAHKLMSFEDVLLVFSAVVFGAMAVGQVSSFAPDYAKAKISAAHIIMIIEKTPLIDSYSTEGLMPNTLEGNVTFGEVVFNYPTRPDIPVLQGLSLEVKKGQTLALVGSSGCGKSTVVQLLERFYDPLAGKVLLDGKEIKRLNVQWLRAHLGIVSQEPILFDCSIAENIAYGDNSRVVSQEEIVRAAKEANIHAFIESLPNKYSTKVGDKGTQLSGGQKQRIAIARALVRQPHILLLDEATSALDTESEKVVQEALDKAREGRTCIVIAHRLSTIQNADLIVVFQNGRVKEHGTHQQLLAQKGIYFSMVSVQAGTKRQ

CYP3A4, sequence (P08684 whole entry): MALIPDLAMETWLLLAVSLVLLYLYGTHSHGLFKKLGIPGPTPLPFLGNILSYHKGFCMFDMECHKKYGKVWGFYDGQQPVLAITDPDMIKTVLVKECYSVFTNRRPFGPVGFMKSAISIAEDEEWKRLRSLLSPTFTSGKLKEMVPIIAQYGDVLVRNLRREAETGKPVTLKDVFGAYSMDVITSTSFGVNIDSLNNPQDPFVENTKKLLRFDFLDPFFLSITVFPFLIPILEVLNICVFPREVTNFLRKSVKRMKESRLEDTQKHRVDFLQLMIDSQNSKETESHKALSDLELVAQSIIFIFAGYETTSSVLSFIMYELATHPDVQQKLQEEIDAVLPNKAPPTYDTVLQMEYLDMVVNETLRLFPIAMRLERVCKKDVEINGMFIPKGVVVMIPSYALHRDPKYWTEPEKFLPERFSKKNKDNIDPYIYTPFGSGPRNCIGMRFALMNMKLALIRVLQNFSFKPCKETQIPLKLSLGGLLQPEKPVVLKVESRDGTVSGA

`CC(C)n1cc(C(=O)Nc2ccc(Oc3ccnc4[nH]nc(N[C@H](C)CO)c34)c(F)c2)c(=O)n(-c2ccc(F)cc2)c1=O` [Compound 1, (R)—N-(3-fluoro-4-((3-((1-hydroxypropan-2-yl)amino)-1H-pyrazolo[3,4-b]pyridin-4-yl)oxy)phenyl)-3-(4-fluorophenyl)-1-isopropyl-2,4-dioxo-1,2,3,4-tetrahydropyrimidine-5-carboxamide] was tested, and the “response of cured mice to subsequent re-challenge with the same syngeneic tumor” value (syngeneic tumor) was “resistant to subsequent re-challenge with the same syngeneic tumor”, the “therapeutic multiples compared to expected exposure at the starting dose of 25 mg QD” value [1] was 39-78 and the “STD10 for 14 days once daily dose administration” value ([1]; 14 days) was 100 mg/kg. For the same compound, the “metabolizing enzyme in vitro” value (CYP3A4) was “primarily metabolized by CYP3A4 and CYP2D6”, the “abnormal ocular observation at recovery sacrifice (unlikely to be related to the test article)” value (C57BL/6 mice; Day 66, Compound 1 for four weeks in combination with anti-PD-1) was “unilateral focal atrophy of the outer nuclear layer in Animal 4” and the “recovery period within which Compound 1-related microscopic retinal changes may be resolved” value (C57BL/6 mice; mice, histopathology assessment of the retinas) was 1-4 week. For the same compound, the “animals affected by swelling of rod and cone processes (incidence and grade)” value (C57BL/6 mice; Compound 1 for four weeks as monotherapy) was “three animals were minimally affected and two animals were mildly affected”, the “animals affected by swelling of rod and cone processes (incidence and grade)” value (C57BL/6 mice; Compound 1 for four weeks in combination with anti-PD-1) was “four of five animals were minimally affected” and the “test article-related ocular changes at recovery sacrifice” value (C57BL/6 mice; tumor-bearing mice, Day 66, 28 days after the 28-day dosing period) was “no definitively Compound 1-related changes were observed; also recorded: no definitively test article-related changes were observed”. For the same compound, the “test article-related microscopic changes in retina at terminal necropsy” value (C57BL/6 mice; tumor-naive mice, Day 38, Compound 1 50 mg/kg BID for 28 days (four weeks), as monotherapy or in combination with anti-PD-1, seen only under epifluorescent illumination, 50 mg/kg) was “multifocal swelling of the rod and cone processes in the retina; also recorded: multifocal swelling of the Rod and Cone processes in retina” and the P-gp substrate status (P-gp) was “substrate of P-gp and BCRP”.
